Experimental data: PMC9194828, “Chemoenzymatic Synthesis of Asymmetrically Branched Human Milk Oligosaccharide Lacto-N-Hexaose” (Frontiers in Chemistry, 2022)

Biological target: T1, HP0826 (β1,4-galactosyltransferase) (Helicobacter pylori, UniProt O25500)
T1 construct: gene HP_0826; recombinantly expressed per earlier literature (Fang et al., 2018); used as cell lysate in synthesis
Experiment: acceptor specificity test
Type: cell-based
Details: UDP-Gal donor; enzyme preparation not given

T1 sequence (O25500 entry or part of it): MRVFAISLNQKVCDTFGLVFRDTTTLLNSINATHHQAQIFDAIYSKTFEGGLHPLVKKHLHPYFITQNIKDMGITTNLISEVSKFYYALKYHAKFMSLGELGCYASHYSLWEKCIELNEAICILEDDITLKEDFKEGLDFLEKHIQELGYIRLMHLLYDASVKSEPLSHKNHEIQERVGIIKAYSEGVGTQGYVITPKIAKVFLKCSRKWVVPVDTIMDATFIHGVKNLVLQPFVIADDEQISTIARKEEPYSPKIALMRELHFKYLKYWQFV

`CC(=O)N[C@H]1[C@H](OCCCCCCN=[N+]=[N-])O[C@H](CO)[C@@H](O)[C@@H]1O` [GlcNAc-C6N3] was tested. Which acceptor specificity test did it give?
The acceptor specificity test was “HP0826 exhibited excellent enzymatic activity on GlcNAc-C6N3”.
